Results as given in US20120309739A1, “AKT / PKB INHIBITORS” (ALMAC DISCOVERY LIMITED, priority 2009, published 2012).
Counter-ions that a name gives are not always drawn.

Tests used:
Type in all cases: biochemical
AKT1 = target: T1, AKT1 (Homo sapiens, UniProt P31749); assay: AKT Kinase Assay (IMAP fluorescent polarisation) vs AKT1; conditions: activated AKT1, FAM Crosstide substrate
T1 construct: purchased SignalChem
Experimental: (§1) Testing of the compounds was performed using an AKT Kinase Assay:
(§2) Activated AKT isoforms 1, 2 and 3 were assayed utilising a 5′ FAM Crosstide (Seq. GRPRTSSFAEG-OH). The extent of kinase phosphorylation was determined by fluorescent polarisation using IMAP progressive binding reagent, which introduces binding beads which allow the reagent to specifically bind to phosphate residues via covalent co-ordination complex bonds.
(§3) iMAP binding solution stops Crosstide/kinase interaction and specifically binds phosphorylated substrates. The degree of phosphorylation is determined by fluorescent polarisation (excitation 485 nm; emission 528 nm) or the reduction in speed of rotation of the excited substrate.
(§4) The following materials were used in the assay: • a) Activated AKT isoforms (SignalChem.) dissolved in Complete Reaction buffer at a pre-determined concentration selected so that the assay was carried out in the linear range. • b) AKT substrate peptide: FAM Crosstide (R7110) Molecular Devices, diluted in complete reaction buffer. • c) iMAP Progressive Screening Express Kit (R8127) Molecular Devices • d) Complete Reaction Buffer containing 0.1% BSA, 10 mM Tris-HCl, 10 mM MgCl2, 0.05% NaN3 and 0.01% phosphate free BSA, 1 mM DTT • e) Progressive Binding Solution containing 75% Buffer A, 25% Buffer B and low volume Binding Reagent which contains the binding entity for the assay • f) ATP diluted in complete reaction buffer • g) Black polystyrene 384 well assay plates (Nunc). • h) Biotek Synergy 4 Hybrid Plate reader.
(§5) 50 μl of test compound was dissolved in DMSO (Sigma Aldrich) and serially diluted in complete reaction buffer to give a fourteen point half log dose response and plated into 384 well black plates. The compound was incubated at room temperature with activated AKT isoform ([…]) at the pre-determined concentration, for 45 minutes.
(§6) […] of ATP solution mixed with 2.5 μl of AKT substrate peptide (FAM Crosstide (R7110) Molecular Devices) were dispensed into each well and the plate centrifuged at 1000 rpm for 20 seconds to ensure homogenous mixing of reagents. The reaction mix was incubated in the dark for one hour at room temperature.
(§7) The kinase reaction was stopped by the addition of Progressive Binding Solution and the mixture allowed to equilibrate for one hour in the dark, at room temperature.
(§8) The fluorescent polarisation generated in each well was determined using a […] Synergy 4 Hybrid plate reader. In brief, each reaction solution was excited at 485 nm with the emission measured at 528 nm in both the parallel and perpendicular pathway.
(§9) The polarisation value generated in each well was calculated by Gen5 software (Biotek) and the % inhibition of kinase activity compared to vehicle control was calculated via GraphPad Prism. IC50 values for each compound were calculated by non-linear regression analysis using Prism software.
(§10) All plates were internally controlled by two methods. Firstly, by calculating the signal:noise ratio; based on kinase polarisation without inhibitor and polarisation generated by complete reaction buffer in the absence of activated kinase. Secondly by determining IC50 values generated by known inhibitors of the AKT isoforms.

AKT2 = target: T2, AKT2 (Homo sapiens, UniProt P31751); assay: AKT Kinase Assay (IMAP fluorescent polarisation) vs AKT2; conditions: activated AKT2, FAM Crosstide substrate
T2 construct: purchased SignalChem
Experimental: as §1, §2, §3, §4, §5, §6, §7, §8, §9, §10

AKT3 = target: T3, AKT3 (Homo sapiens, UniProt Q9Y243); assay: AKT Kinase Assay (IMAP fluorescent polarisation) vs AKT3; conditions: activated AKT3, FAM Crosstide substrate
T3 construct: purchased SignalChem
Experimental: as §1, §2, §3, §4, §5, §6, §7, §8, §9, §10

T3 sequence (Q9Y243 whole entry): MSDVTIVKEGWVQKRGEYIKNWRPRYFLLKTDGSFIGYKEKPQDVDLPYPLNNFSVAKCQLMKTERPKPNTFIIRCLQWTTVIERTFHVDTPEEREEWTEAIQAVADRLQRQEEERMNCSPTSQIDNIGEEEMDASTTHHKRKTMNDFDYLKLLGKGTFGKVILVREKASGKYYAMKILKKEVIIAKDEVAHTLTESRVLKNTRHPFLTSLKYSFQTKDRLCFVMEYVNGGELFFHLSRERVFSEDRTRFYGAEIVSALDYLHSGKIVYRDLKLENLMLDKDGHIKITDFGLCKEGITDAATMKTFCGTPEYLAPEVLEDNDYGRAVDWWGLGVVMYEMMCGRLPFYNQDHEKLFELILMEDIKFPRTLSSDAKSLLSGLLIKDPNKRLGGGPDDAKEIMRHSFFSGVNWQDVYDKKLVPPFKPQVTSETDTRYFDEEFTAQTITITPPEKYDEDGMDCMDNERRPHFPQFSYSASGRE
T1 sequence (P31749 whole entry): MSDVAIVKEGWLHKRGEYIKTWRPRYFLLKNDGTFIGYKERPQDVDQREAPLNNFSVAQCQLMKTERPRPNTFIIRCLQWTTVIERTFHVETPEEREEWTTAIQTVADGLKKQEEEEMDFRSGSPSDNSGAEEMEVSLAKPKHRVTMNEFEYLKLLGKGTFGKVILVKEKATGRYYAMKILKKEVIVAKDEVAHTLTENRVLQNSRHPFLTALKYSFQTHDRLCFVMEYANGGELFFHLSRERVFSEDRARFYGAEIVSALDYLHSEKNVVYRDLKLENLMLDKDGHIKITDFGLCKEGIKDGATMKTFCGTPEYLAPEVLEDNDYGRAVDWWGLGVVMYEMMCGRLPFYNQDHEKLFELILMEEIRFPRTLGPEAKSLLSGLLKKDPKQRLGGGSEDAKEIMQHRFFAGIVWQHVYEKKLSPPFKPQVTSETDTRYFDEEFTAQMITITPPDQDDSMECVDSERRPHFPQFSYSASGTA
T2 sequence (P31751 whole entry): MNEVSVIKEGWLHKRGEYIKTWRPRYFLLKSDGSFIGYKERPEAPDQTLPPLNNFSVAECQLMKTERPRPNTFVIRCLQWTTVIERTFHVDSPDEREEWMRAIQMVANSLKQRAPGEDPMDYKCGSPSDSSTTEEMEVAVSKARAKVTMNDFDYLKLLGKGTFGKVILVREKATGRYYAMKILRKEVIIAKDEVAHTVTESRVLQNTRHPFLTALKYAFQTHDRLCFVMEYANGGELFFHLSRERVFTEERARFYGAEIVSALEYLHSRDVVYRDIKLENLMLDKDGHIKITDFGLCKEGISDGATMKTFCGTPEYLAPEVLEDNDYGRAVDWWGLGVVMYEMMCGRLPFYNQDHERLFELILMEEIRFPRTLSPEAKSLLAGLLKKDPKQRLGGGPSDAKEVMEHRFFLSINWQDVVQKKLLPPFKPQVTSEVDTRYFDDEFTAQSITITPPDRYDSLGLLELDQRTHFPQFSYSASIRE

Row | SMILES | IC50 (AKT1) [nM] | IC50 (AKT2) [nM] | IC50 (AKT3) [µM]
1 | CCn1cnc2oc(-c3ccc(C4(N)CCC4)cc3)c(-c3ccccc3)c2c1=O [Example 104, 6-(4-(1-Aminocyclobutyl)phenyl)-3-ethyl-5-phenylfuro[2,3-d]pyrimidin-4(3H)-one, HCl] | 1000 to 10000 | ≤ 100 | 1 to 10
2 | Cn1c(OCCO)nc2oc(-c3ccc(C4(N)CCC4)cc3)c(-c3ccccc3)c2c1=O [Example 85, 6-(4-(1-Aminocyclobutyl)phenyl)-2-(2-hydroxyethoxy)-3-methyl-5-phenylfuro[2,3-d]pyrimidin-4(3H)-one, HCl] | 100 to 1000 | ≤ 100 | 1 to 10
3 | NC1(c2ccc(-c3oc4ncc([N+](=O)[O-])cc4c3-c3ccccc3)cc2)CCC1 [Example 21, 1-(4-(5-Nitro-3-phenylfuro[2,3-b]pyridin-2-yl)phenyl)cyclobutanamine] | 1000 to 10000 | 1000 to 10000 | > 10
4 | NC1(c2ccc(-c3oc4c(Br)cn(CCF)c(=O)c4c3-c3ccccc3)cc2)CCC1 [Example 112] | 100 to 1000 | ≤ 100 | > 10
5 | CCNc1nc(NCCO)nc2oc(-c3ccc(C4(N)CCC4)cc3)c(-c3ccccc3)c12 [Example 81, 2-(6-(4-(1-Aminocyclobutyl)phenyl)-4-(ethylamino)-5-phenylfuro[2,3-d]pyrimidin-2-ylamino)ethanol, HCl] | 100 to 1000 | 1000 to 10000 | > 10
6 | N#CCn1cnc2oc(-c3ccc(C4(N)CCC4)cc3)c(-c3ccccc3)c2c1=O [Example 101, 2-(6-(4-(1-Aminocyclobutyl)phenyl)-4-oxo-5-phenylfuro[2,3-d]pyrimidin-3(4H)-yl)acetonitrile] | 100 to 1000 | 100 to 1000 | 1 to 10
7 | NC1(c2ccc(-c3oc4ncn(CC5CC5)c(=O)c4c3-c3ccccc3)cc2)CCC1 [Example 100] | 1000 to 10000 | ≤ 100 | 1 to 10
8 | NC1(c2ccc(-c3oc4nc(NCCO)ncc4c3-c3ccccc3)cc2)CCC1 [Example 51, 2-((6-(4-(1-Aminocyclobutyl)phenyl)-5-phenylfuro[2,3-d]pyrimidin-2-yl)amino)ethanol] | 100 to 1000 | 100 to 1000 | > 10
9 | N#Cc1cccc2c(-c3ccccc3)c(-c3ccc(C4(N)CCC4)cc3)oc12 [Example 8, 2-(4-(1-Aminocyclobutyl)phenyl)-3-phenylbenzofuran-7-carbonitrile] | 1000 to 10000 | 1000 to 10000 | > 10
10 | NC1(c2ccc(-c3oc4ncc(NCCO)nc4c3-c3ccccc3)cc2)CCC1 [Example 148, 2-(6-(4-(1-Aminocyclobutyl)phenyl)-7-phenylfuro[2,3-b]pyrazin-2-ylamino)ethanol] | 100 to 1000 | 1000 to 10000 | > 10
11 | CNc1nc2oc(-c3ccc(C4(N)CCC4)cc3)c(-c3ccccc3)c2c(=O)n1C [Example 65, 6-(4-(1-Aminocyclobutyl)phenyl)-3-methyl-2-(methylamino)-5-phenylfuro[2,3-d]pyrimidin-4(3H)-one hydrochloride] | 100 to 1000 | 100 to 1000 | 1 to 10
12 | C[C@H](O)CNc1nc2oc(-c3ccc(C4(N)CCC4)cc3)c(-c3ccccc3)c2c(=O)n1C [Example 86, (S)-6-(4-(1-Aminocyclobutyl)phenyl)-2-((2-hydroxypropyl)amino)-3-methyl-5-phenylfuro[2,3-d]pyrimidin-4(3H)-one] | 100 to 1000 | 100 to 1000 | 1 to 10
13 | COc1nc(NCCN)nc2oc(-c3ccc(C4(N)CCC4)cc3)c(-c3ccccc3)c12 [Example 43, N^1-(6-(4-(1-Aminocyclobutyl)phenyl)-4-methoxy-5-phenylfuro[2,3-d]pyrimidin-2-yl)ethane-1,2-diamine] | 100 to 1000 | 100 to 1000 | 1 to 10
14 | NC(=O)c1ccc2c(-c3ccccc3)c(-c3ccc(C4(N)CCC4)cc3)oc2c1 [Example 5, 2-(4-(1-Aminocyclobutyl)phenyl)-3-phenylbenzofuran-6-carboxamide] | 1000 to 10000 | 1000 to 10000 | > 10
15 | NC1(c2ccc(-c3oc4ncc(-c5cncnc5)nc4c3-c3ccccc3)cc2)CCC1 [Example 140, 1-(4-(7-Phenyl-2-(pyrimidin-5-yl)furo[2,3-b]pyrazin-6-yl)phenyl)cyclobutanamine] | 1000 to 10000 | 100 to 1000 | > 10
16 | CCn1c(NC)nc2oc(-c3ccc(C4(N)CCC4)cc3)c(-c3ccccc3)c2c1=O [Example 92, 6-(4-(1-Aminocyclobutyl)phenyl)-3-ethyl-2-(methylamino)-5-phenylfuro[2,3-d]pyrimidin-4(3H)-one] | 100 to 1000 | ≤ 100 | 1 to 10
17 | CSc1nc(I)c2c(-c3ccccc3)c(-c3ccc(C4(N)CCC4)cc3)oc2n1 [Example 75, 1-(4-(4-Iodo-2-(methylthio)-5-phenylfuro[2,3-d]pyrimidin-6-yl)phenyl)cyclobutanamine] | 1000 to 10000 | 1000 to 10000 | > 10
18 | COc1nc(N2CCC(N)CC2)nc2oc(-c3ccc(C4(N)CCC4)cc3)c(-c3ccccc3)c12 [Example 39, 1-(6-(4-(1-Aminocyclobutyl)phenyl)-4-methoxy-5-phenylfuro[2,3-d]pyrimidin-2-yl)piperidin-4-amine] | 100 to 1000 | 100 to 1000 | 1 to 10
19 | COc1nccc2c(-c3ccccc3)c(-c3ccc(C4(N)CCC4)cc3)oc12 [Example 126, 1-(4-(7-Methoxy-3-phenylfuro[2,3-c]pyridin-2-yl)phenyl)cyclobutanamine] | 100 to 1000 | 100 to 1000 | > 10
20 | NC1(c2ccc(-c3oc4ncc(COCc5ccccc5)nc4c3-c3ccccc3)cc2)CCC1 [Example 142, 1-(4-(2-(Benzyloxymethyl)-7-phenylfuro[2,3-b]pyrazin-6-yl)phenyl)cyclobutanamine] | 100 to 1000 | 100 to 1000 | 1 to 10
21 | Cn1cc(C(=O)NCCO)c2oc(-c3ccc(C4(N)CCC4)cc3)c(-c3ccccc3)c2c1=O [Example 120, 2-(4-(1-Aminocyclobutyl)phenyl)-N-(2-hydroxyethyl)-5-methyl-4-oxo-3-phenyl-4,5-dihydrofuro[3,2-c]pyridine-7-carboxamide] | 100 to 1000 | 100 to 1000 | > 10
22 | NC1(c2ccc(-c3oc4ccn(CCF)c(=O)c4c3-c3ccccc3)cc2)CCC1 [Example 91, 2-(4-(1-Aminocyclobutyl)phenyl)-5-(2-fluoroethyl)-3-phenylfuro[3,2-c]pyridin-4(5H)-one] | 1000 to 10000 | 1000 to 10000 | > 10
23 | N#Cc1ccc2oc(-c3ccc(C4(N)CCC4)cc3)c(-c3ccccc3)c2c1 [Example 6, 2-(4-(1-Aminocyclobutyl)phenyl)-3-phenylbenzofuran-5-carbonitrile] | 1000 to 10000 | 1000 to 10000 | > 10
24 | CSc1nc2oc(-c3ccc(C4(N)CCC4)cc3)c(-c3ccccc3)c2c(=O)n1CC(N)=O [Example 97, 2-(6-(4-(1-Aminocyclobutyl)phenyl)-2-(methylthio)-4-oxo-5-phenylfuro[2,3-d]pyrimidin-3(4H)-yl)acetamide] | 100 to 1000 | 100 to 1000 | > 10
25 | CSc1nc2oc(-c3ccc(C4(N)CCC4)cc3)c(-c3ccccc3)c2c(=O)n1CC#N [Example 96, 2-(6-(4-(1-Aminocyclobutyl)phenyl)-2-(methylthio)-4-oxo-5-phenylfuro[2,3-d]pyrimidin-3(4H)-yl)acetonitrile] | ≤ 100 | ≤ 100 | 1 to 10
26 | NC1(c2ccc(-c3oc4ncccc4c3-c3ccccc3)cc2)CCC1 [Example 19, 1-(4-(3-Phenylfuro[2,3-b]pyridin-2-yl)phenyl)cyclobutanamine] | > 10000 | > 10000 | > 10
27 | NC1(c2ccc(-c3oc4nc(N5CCNCC5)ncc4c3-c3ccccc3)cc2)CCC1 [Example 53, 1-(4-(5-Phenyl-2-(piperazin-1-yl)furo[2,3-d]pyrimidin-6-yl)phenyl)cyclobutanamine] | 100 to 1000 | 100 to 1000 | > 10
